This note sets out measurements from PMC11199504, “New hemisynthetic derivatives of sphaeropsidin phytotoxins triggering severe endoplasmic reticulum swelling in cancer cells” (Scientific Reports, 2024).

Where two headings read alike, the source gives them in different places.

Assay type in all cases: cell-based
The test system of one experiment is A549. Kind of experiment: MTT colorimetric assay, A549. The following applies: Homo sapiens, 72 h treatment, mean ± SEM of six replicates of one experiment (1: 7, 13: 6 independent experiments), resistant to apoptosis, read-out: IC50 determined by MTT assays, A549. From the text: (§1) Cancer cell lines were obtained from either the European Collection of Cell Cultures (ECACC; Salisbury, UK) or the American Type Culture Collection (ATCC; Manassas, VA). The two glioma cell lines were the U373 (ECACC code 08061901) and Hs683 (ATCC HTB-138) cell lines. The carcinoma cell lines were the A549 non-small cell carcinoma cell line (ATCC code CCL 185) and the MCF-7 mammary breast carcinoma cell line (ATCC code HTB-22). The melanoma cell lines were the mouse B16F10 cells (ATCC code CRL-6475) and the human SKMEL-28 cells (ATCC code HTB-72). The ovarian cancer cell line A2780 and its cisplatin-resistant subline A2780cis were obtained from Sigma-Aldrich (St. Louis, MO, USA). Colon cancer HCT116 cells were obtained from ATCC (CCL-247) and the oxaliplatin-resistant subline HCT116/OxR established in the W. Berger lab[59]. The HeLa cell derivative KB-3-1 and the colchicine-selected, highly ABCB1-overexpressing subline KB-C-1 were generously donated by Dr. D. W. Shen, Bethesda, MD. RKOp53wt colon cancer cells together with the RKOp53KO (homozygous knock-out) subline[60] were generously provided by Dr. Vogelstein from John Hopkins University, Baltimore. The correct origin of all cell models was confirmed by STR during performance of the experiments. All cell lines were cultured in RPMI1640 culture medium supplemented with 10% heat-inactivated fetal bovine serum, 2% L-glutamine (0.6 mg/mL), 2% penicillin/streptomycin (200 IU/mL and 200 μg/mL) and 0.1 mg/mL gentamicin.
(§2) The MTT (3-(4,5-dimethylthiazol-2-yl)-2,5-diphenyl tetrazolium bromide) colorimetric assay has been conducted as described previously. Briefly, cells were seeded 24 h before their treatment with each compound for a period of 72 h. The concentrations tested ranged from 10 nM to 100 µM. Each assay was conducted in sextuplicates. The number of independent experiments is mentioned in the legend of the tables.
On the technique in general: Formazan colour is commonly taken as a measure of viable cells.

The test system of a further experiment is B16F10. Briefly: MTT colorimetric assay, B16F10. As to conditions: Mus musculus, B16-F10; 72 h treatment; mean ± SEM; sensitive to apoptosis; read-out: IC50 determined by MTT assays, B16F10.
Excerpt: as §1, §2

Another experiment has as its system U373. Briefly: MTT colorimetric assay, U373. The following applies: Homo sapiens, U373 MG; 72 h treatment; mean ± SEM; resistant to apoptosis; read-out: IC50 determined by MTT assays, U373.
Excerpt: as §1, §2

In the next experiment the test system is Hs683. Kind of experiment: MTT colorimetric assay, Hs683. The following applies: Homo sapiens, Hs 683; 72 h treatment; mean ± SEM; sensitive to apoptosis; read-out: IC50 determined by MTT assays, Hs683.
Excerpt: as §1, §2

Experiment [1] deals with A549, SKMEL-28, U373, MCF7, Hs683, B16F10. Kind of experiment: MTT colorimetric assay, mean of the six cell lines. The following applies: for IC50: mean over the six cell lines, 72 h treatment, read-out: IC50 determined by MTT assays, Mean; for activity in the cancer cell panel: MTT, alone.
Excerpt: as §1, §2

A further experiment has as its system SKMEL-28. Briefly: MTT colorimetric assay, SKMEL-28. As to conditions: Homo sapiens, SK-MEL-28; 72 h treatment; mean ± SEM; resistant to apoptosis; read-out: IC50 determined by MTT assays, SKMEL-28.
Excerpt: as §1, §2

The next experiment concerns MCF7. Kind of experiment: MTT colorimetric assay, MCF7. The following applies: Homo sapiens, 72 h treatment, mean ± SEM, sensitive to apoptosis, read-out: IC50 determined by MTT assays, MCF7.
Excerpt: as §1, §2

Broadly, the IC50 is the concentration that inhibits the measured activity by half. On to `C=CC1(C)C=C2C(=O)C3(OC(=O)CCCCC(=O)O)OC(=O)C4(CCCC(C)(C)C34)C2(O)CC1` (stereo not shown) [Compound 5], for which the IC50 in the experiment with A549 turned out to be 1.92 ± 0.07 µM; in the experiment on B16F10, 0.78 ± 0.09 µM; in the experiment with U373, 1.82 ± 0.14 µM; in the experiment with Hs683, 1.96 ± 0.18 µM; in experiment [1] (72 h), 1.7 ± 0.19 µM; with SKMEL-28 it was 1.61 ± 0.11 µM. Also, the 50% inhibitory concentration (IC50) in the experiment with MCF7 came out at 2.09 ± 0.07 µM.

For `COC(=O)CCCC=CC1(C)C=C2C(=O)C3(O)OC(=O)C4(CCCC(C)(C)C34)C2(O)CC1` (stereo not shown) [Compound 6], the IC50 stood at 2.66 ± 0.04 µM in the experiment with A549; 1.81 ± 0.14 µM in the experiment on B16F10; 2.81 ± 0.08 µM in the experiment with U373; 3.33 ± 0.1 µM in the experiment on Hs683; 2.64 ± 0.2 µM in experiment [1] (72 h); 2.74 ± 0.13 µM in the experiment on SKMEL-28. The 50% inhibitory concentration (IC50) with MCF7 is 2.48 ± 0.13 µM.

On to `COC(=O)CCC=CC1(C)C=C2C(=O)C3(O)OC(=O)C4(CCCC(C)(C)C34)C2(O)CC1` (stereo not shown) [Compound 7], for which the half-maximal inhibitory concentration (IC50) amounted to 4.5 ± 0.07 µM with A549; 2.33 ± 0.29 µM with B16F10; 7.75 ± 0.31 µM in the experiment with U373; 3.63 ± 0.15 µM in the experiment on Hs683; 5.03 ± 0.82 µM in experiment [1] (72 h); 5.06 ± 0.58 µM in the experiment with SKMEL-28. Further, the 50% inhibitory concentration (IC50) in the experiment on MCF7 is 6.88 ± 0.26 µM.

Turning to `CC1(C=CCCCC(=O)O)C=C2C(=O)C3(O)OC(=O)C4(CCCC(C)(C)C34)C2(O)CC1` (stereo not shown) [Compound 8], the 50% inhibitory concentration (IC50) in the experiment with A549 was over 100 µM; with B16F10, 81.3 ± 2.42 µM; with U373, over 100 µM; in the experiment with Hs683, 85.3 ± 5.25 µM; in experiment [1] (72 h) it was over 94 µM; in experiment [1], over 94.4 µM. For the same compound, the half-maximal inhibitory concentration (IC50) in the experiment on SKMEL-28 and in the experiment on MCF7 was over 100 µM throughout. Moreover, the “activity in the cancer cell panel” value in experiment [1] is “inactive”.

`CCCCC=CC1(C)C=C2C(=O)C3(O)OC(=O)C4(CCCC(C)(C)C34)C2(O)CC1` (stereo not shown) [Compound 9]: the IC50 in the experiment with A549 stood at 0.63 ± 0.03 µM; in the experiment with B16F10, 0.52 ± 0.02 µM; in the experiment on U373, 1.39 ± 0.15 µM; with Hs683, 1.11 ± 0.14 µM; in experiment [1] (72 h), 0.88 ± 0.16 µM; in the experiment with SKMEL-28 it was 1.15 ± 0.11 µM. The 50% inhibitory concentration (IC50) with MCF7 amounted to 0.47 ± 0.03 µM.

In the case of `CC1(C=CCCCCBr)C=C2C(=O)C3(O)OC(=O)C4(CCCC(C)(C)C34)C2(O)CC1` (stereo not shown) [Compound 10], the 50% inhibitory concentration (IC50) in the experiment on A549 came out at 2.96 ± 0.12 µM; with B16F10, 2 ± 0.12 µM; with U373 it was 5.01 ± 0.18 µM; with Hs683, 4.35 ± 0.27 µM; in experiment [1] (72 h), 3.79 ± 0.54 µM; in the experiment on SKMEL-28, 3.07 ± 0.1 µM. For the same compound, the IC50 in the experiment on MCF7 turned out to be 5.36 ± 0.58 µM.

Take `CC1(C=CCCBr)C=C2C(=O)C3(O)OC(=O)C4(CCCC(C)(C)C34)C2(O)CC1` (stereo not shown) [Compound 11]: the concentration for half-maximal inhibition (IC50) in the experiment on A549 was 2 ± 0.13 µM; in the experiment with B16F10 it was 2.55 ± 0.13 µM; with U373, 2.81 ± 0.08 µM; in the experiment with Hs683, 2.99 ± 0.07 µM; in experiment [1] (72 h), 2.67 ± 0.15 µM; in the experiment on SKMEL-28, 2.77 ± 0.18 µM. Further, the concentration for half-maximal inhibition (IC50) in the experiment on MCF7 stood at 2.89 ± 0.08 µM.

For the compound `CC1(C=Cc2ccccc2)C=C2C(=O)C3(O)OC(=O)C4(CCCC(C)(C)C34)C2(O)CC1` (stereo not shown) [Compound 12], the IC50 turned out to be 1.61 ± 0.14 µM in the experiment on A549; 2.52 ± 0.21 µM in the experiment on B16F10; 3.06 ± 0.07 µM in the experiment on U373; 2.72 ± 0.11 µM in the experiment on Hs683; 2.54 ± 0.22 µM in experiment [1] (72 h); 2.29 ± 0.09 µM in the experiment with SKMEL-28. Also, the IC50 in the experiment with MCF7 was determined as 3.06 ± 0.22 µM.

With `C=CCCCc1ccc2ccc3cccc4ccc1c2c34` [Compound 14, reference compound], the IC50 is 78.8 ± 1.26 µM with A549; 73.1 ± 1.32 µM with B16F10; over 100 µM in the experiment with U373; 96.12 ± 0.5 µM with Hs683; over 87.3 µM in experiment [1] (72 h); over 100 µM in the experiment with SKMEL-28. The IC50 in the experiment with MCF7 is 76 ± 1.55 µM. Besides, in experiment [1], the “activity in the cancer cell panel” value is “inactive”.

On to `CC1(C=CCCCCc2ccc3ccc4cccc5ccc2c3c45)C=C2C(=O)C3(O)OC(=O)C4(CCCC(C)(C)C34)C2(O)CC1` (stereo not shown) [Compound 23], for which the IC50 with A549 came out at 0.6 ± 0.02 µM; in the experiment on B16F10, 0.27 ± 0.01 µM; with U373, 0.66 ± 0.02 µM; in the experiment with Hs683 it was 0.64 ± 0.02 µM; in experiment [1] (72 h), 0.49 ± 0.07 µM; with SKMEL-28, 0.37 ± 0.01 µM. In the experiment on MCF7, the IC50 was 0.42 ± 0.03 µM.
